Consider 1 compound from US8017321B2, “Gefitinib sensitivity-related gene expression and products and methods related thereto” (The Regents of the University of Colorado, A Body Corporate, priority 2005, dated 2011).

The subject of one assay is A549 NSCLC xenografts. Kind of assay: Athymic nude mice bearing human NSCLC xenografts (FIG. 5). In kind it is in vivo. The source says:
FIG. 5 is a line graph showing the effects of gefitinib on A549 NSCLC xenografts.
For orientation: A xenograft is tissue or cells of one species grown in another, often human tumour cells in immunodeficient mice.

In a further assay the test system is NSCLC. The note with it: chemo-refractory advanced stage NSCLC, phase II clinical trials; cited from earlier work.

Molecules are shown by their SMILES.

In the case of `COc1cc2ncnc(Nc3ccc(F)c(Cl)c3)c2cc1OCCCN1CCOCC1` [ZD 1839, gefitinib], the “tumor growth of NSCLC xenografts after treatment” value with A549 NSCLC xenografts (listed as ZD1839) is recorded as “Growth delay was evident”; with A549 NSCLC xenografts (listed as gefitinib), “inhibitory effect”. Further, the “patients responding to treatment” value in the assay on NSCLC was 11-20%.
